# From ChEMBL document CHEMBL3112450, “Synthesis and in vitro antitumor evaluation of primary amine substituted quinazoline linked benzimidazole” (Bioorg Med Chem Lett, 2014)
# Legend:
# Assay type in all cases: functional
# [1] = tested on: MCF7; assay: Cytotoxicity against human MCF7 cells assessed as cell growth at 10^-4 M after 48 hrs by SRB assay; conditions: MCF7, 48 h, read-out: Activity
# [2] = tested on: Malme-3M; assay: Cytotoxicity against human MALME-3M cells assessed as cell growth at 10^-7 M after 48 hrs by SRB assay; conditions: read-out: Activity
# [3] = tested on: SNB-19; assay: Cytotoxicity against human SNB19 cells assessed as cell growth at 10^-7 M after 48 hrs by SRB assay; conditions: SNB-19, 48 h, read-out: Activity
# [4] = tested on: HCT-15; assay: Cytotoxicity against human HCT15 cells assessed as cell growth at 10^-7 M after 48 hrs by SRB assay; conditions: HCT-15, 48 h, read-out: Activity
# [5] = tested on: COLO 205; assay: Cytotoxicity against human COLO205 cells assessed as cell growth at 10^-7 M after 48 hrs by SRB assay; conditions: COLO 205, 48 h, read-out: Activity
# [6] = tested on: NCI-H460; assay: Cytotoxicity against human NCI-H460 cells assessed as cell growth at 10^-7 M after 48 hrs by SRB assay; conditions: NCI-H460, 48 h, read-out: Activity
# [7] = tested on: NCI-H23; assay: Cytotoxicity against human NCI-H23 cells assessed as cell growth at 10^-7 M after 48 hrs by SRB assay; conditions: NCI-H23, 48 h, read-out: Activity
# [8] = Cytotoxicity against human UO31 cells assessed as cell growth at 10^-8 M after 48 hrs by SRB assay; conditions: UO-31, 48 h, read-out: Activity
# [9] = tested on: TK-10; assay: Cytotoxicity against human TK10 cells assessed as cell growth at 10^-8 M after 48 hrs by SRB assay; conditions: TK-10, 48 h, read-out: Activity
# [10] = tested on: SK-OV-3; assay: Cytotoxicity against human SKOV3 cells assessed as cell growth at 10^-4 M after 48 hrs by SRB assay; conditions: SK-OV-3, 48 h, read-out: Activity
# [11] = tested on: 786-0; assay: Cytotoxicity against human 786-0 cells assessed as cell growth at 10^-4 M after 48 hrs by SRB assay; conditions: 786-0, 48 h, read-out: Activity
# [12] = Cytotoxicity against human NCI-ADR-RES cells assessed as cell growth at 10^-4 M after 48 hrs by SRB assay; conditions: read-out: Activity
# [13] = tested on: IGROV-1; assay: Cytotoxicity against human IGROV1 cells assessed as cell growth at 10^-4 M after 48 hrs by SRB assay; conditions: IGROV-1, 48 h, read-out: Activity
# [14] = tested on: LOX IMVI; assay: Cytotoxicity against human LOXIMVI cells assessed as cell growth at 10^-4 M after 48 hrs by SRB assay; conditions: read-out: Activity
# [15] = tested on: HT-29; assay: Cytotoxicity against human HT-29 cells assessed as cell growth at 10^-4 M after 48 hrs by SRB assay; conditions: HT-29, 48 h, read-out: Activity
# [16] = tested on: HCT-15; assay: Cytotoxicity against human HCT15 cells assessed as cell growth at 10^-4 M after 48 hrs by SRB assay; conditions: HCT-15, 48 h, read-out: Activity
# [17] = tested on: HCC 2998; assay: Cytotoxicity against human HCC2998 cells assessed as cell growth at 10^-4 M after 48 hrs by SRB assay; conditions: HCC 2998, 48 h, read-out: Activity
# [18] = tested on: NCI-H226; assay: Cytotoxicity against human NCI-H226 cells assessed as cell growth at 10^-4 M after 48 hrs by SRB assay; conditions: NCI-H226, 48 h, read-out: Activity
# [19] = tested on: RPMI-8226; assay: Cytotoxicity against human RPMI8226 cells assessed as cell growth at 10^-4 M after 48 hrs by SRB assay; conditions: RPMI-8226, 48 h, read-out: Activity
# [20] = tested on: CAKI-1; assay: Cytotoxicity against human Caki1 cells assessed as cell growth at 10^-8 M after 48 hrs by SRB assay; conditions: CAKI-1, 48 h, read-out: Activity
# [21] = tested on: SK-MEL-2; assay: Cytotoxicity against human SK-MEL-2 cells assessed as cell growth at 10^-8 M after 48 hrs by SRB assay; conditions: SK-MEL-2, 48 h, read-out: Activity
# [22] = tested on: SW-620; assay: Cytotoxicity against human SW620 cells assessed as cell growth at 10^-8 M after 48 hrs by SRB assay; conditions: SW-620, 48 h, read-out: Activity
# [23] = tested on: HCC 2998; assay: Cytotoxicity against human HCC2998 cells assessed as cell growth at 10^-8 M after 48 hrs by SRB assay; conditions: HCC 2998, 48 h, read-out: Activity
# [24] = tested on: BT-549; assay: Cytotoxicity against human BT549 cells after 48 hrs by SRB assay; conditions: BT-549, 48 h
# [25] = tested on: T47D; assay: Cytotoxicity against human T47D cells after 48 hrs by SRB assay
# [26] = Cytotoxicity against human NCI-ADR-RES cells after 48 hrs by SRB assay
# [27] = Cytotoxicity against human OVCAR5 cells after 48 hrs by SRB assay; conditions: OVCAR-5, 48 h
# [28] = tested on: MDA-MB-435; assay: Cytotoxicity against human MDA-MB-435 cells after 48 hrs by SRB assay; conditions: MDA-MB-435, 48 h
# [29] = tested on: LOX IMVI; assay: Cytotoxicity against human LOXIMVI cells after 48 hrs by SRB assay
# [30] = tested on: SNB-19; assay: Cytotoxicity against human SNB19 cells after 48 hrs by SRB assay; conditions: SNB-19, 48 h
# [31] = tested on: KM12; assay: Cytotoxicity against human KM12 cells after 48 hrs by SRB assay; conditions: KM12, 48 h
# [32] = tested on: HCT-116; assay: Cytotoxicity against human HCT116 cells after 48 hrs by SRB assay; conditions: HCT-116, 48 h
# [33] = tested on: NCI-H522; assay: Cytotoxicity against human NCI-H522 cells after 48 hrs by SRB assay; conditions: NCI-H522, 48 h
# [34] = tested on: NCI-H460; assay: Cytotoxicity against human NCI-H460 cells after 48 hrs by SRB assay; conditions: NCI-H460, 48 h
# [35] = tested on: MDA-MB-468; assay: Cytotoxicity against human MDA-MB-468 cells assessed as cell growth at 10^-6 M after 48 hrs by SRB assay; conditions: MDA-MB-468, 48 h, read-out: Activity
# [36] = tested on: HCT-15; assay: Cytotoxicity against human HCT15 cells assessed as cell growth at 10^-6 M after 48 hrs by SRB assay; conditions: HCT-15, 48 h, read-out: Activity
# [37] = tested on: HOP-62; assay: Cytotoxicity against human HOP62 cells assessed as cell growth at 10^-6 M after 48 hrs by SRB assay; conditions: HOP-62, 48 h, read-out: Activity
# [38] = Cytotoxicity against human Hs578T cells assessed as cell growth at 10^-7 M after 48 hrs by SRB assay; conditions: Hs-578T, read-out: Activity
smiles,measurement,setting,value
C=CCn1c(C)nc2ccc(Nc3nc(Nc4ccc5nc(C)n(CC=C)c5c4)c4ccccc4n3)cc21,growth at 100 µM,[1],-22%
same,growth at 0.1 µM,[2],92%
same,growth at 0.1 µM,[3],92%
same,growth at 0.1 µM,[4],91%
same,growth at 0.1 µM,[5],101%
same,growth at 0.1 µM,[6],101%
same,growth at 0.1 µM,[7],91%
same,growth at 0.01 µM,[8],84%
same,growth at 0.01 µM,[9],100%
same,growth at 100 µM,[10],-54%
same,growth at 100 µM,[11],-18%
same,growth at 100 µM,[12],-18%
same,growth at 100 µM,[13],-25%
same,growth at 100 µM,[14],7%
same,growth at 100 µM,[15],-16%
same,growth at 100 µM,[16],-15%
same,growth at 100 µM,[17],-53%
same,growth at 100 µM,[18],-38%
same,growth at 100 µM,[19],5%
same,growth at 0.01 µM,[20],93%
same,growth at 0.01 µM,[21],96%
same,growth at 0.01 µM,[22],98%
same,growth at 0.01 µM,[23],92%
same,GI50,[24],1620 nM
same,TGI,[24],3160 nM
same,GI50,[25],1540 nM
same,TGI,[25],3180 nM
same,GI50,[26],2220 nM
same,LC50,[26],> 100000 nM
same,TGI,[26],6070 nM
same,GI50,[27],1700 nM
same,LC50,[27],5620 nM
same,TGI,[27],3090 nM
same,GI50,[28],1730 nM
same,TGI,[28],3330 nM
same,GI50,[29],1550 nM
same,GI50,[30],1690 nM
same,TGI,[30],3560 nM
same,GI50,[31],1640 nM
same,TGI,[31],3080 nM
same,GI50,[32],1370 nM
same,GI50,[33],2030 nM
same,TGI,[33],3530 nM
same,GI50,[34],1890 nM
same,TGI,[34],3700 nM
same,growth at 1 µM,[35],64%
same,growth at 1 µM,[36],91%
same,growth at 1 µM,[37],90%
same,growth at 0.1 µM,[38],96%
